# From patent publication US9932339B2, “Helquats with heteroaromatic substituents, preparation thereof, and use thereof as G-quadruplex stabilizers” (USTAV ORGANICKE CHEMIE A BIOCHEMIE AV CR, V.V.I., priority 2014, dated 2018)
# Columns and labels:
# [1] = system: G-quadruplex in promoter region of the c-myc gene (NHE III1 segment); assay: Dual luciferase analysis with plasmid pGL4.10-myc (luc2) in HGC-27 cells; assay type: cell-based, human; details: Homo sapiens; for inhibition at 50 µM: HGC-27, text summary of tab. 5 (50 μmol·l^−1), read-out: inhibition of expression of firefly luciferase as compared to control; for activity at 50 µM: helquat 50 μmol · l^−1, HGC-27, firefly normalized to Renilla, 24 hours after transfection, read-out: luciferase expression relative to control (control = 100%)
# In short: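 HGC-27 cells were co-transfected 1:1 with pGL4.10-myc (luc2), whose firefly luciferase is driven by an 860 bp c-myc regulatory region containing the G-quadruplex-forming NHE III1 segment, and pRL-TK Renilla control, using X-tremeGENE HP DNA in OptiMEM. Compounds were added two hours post-transfection; luminescence read 24 hours after transfection was Renilla-normalized and expressed relative to control.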
# [2] = system: c-myc protein; assay: Immunodetection of protein c-myc in HGC-27 cell lysates (Western blot); assay type: cell-based, human; details: 50 μmol · l^−1, 24 hour incubation, normalized to β-actin
# Procedure: Determination of changes in c-myc protein expression (transcription factor) in cell lysates prepared from tumor cell line HGC-27 after treatment with test helquats (Tab. 7) was carried out by immunodetection after separation of proteins according to their size by gel electrophoresis (SDS-PAGE) and blotting.
# To determine the influence helquats on expression of c-myc protein, the cells were cultured under standard conditions and in the exponential growth phase were seeded into flasks at a density of 25,000 cells/cm^2. The next day selected helquats were added at a concentration of 50 μmol·l^−1. After 24 hour incubation, the cell pellets were obtained and, after addition of RIPA buffer with protease inhibitors (PrIC) and phosphatases (PhIC) (for composition see Tab. 8) cell lysates were prepared. 150 μl of RIPA buffer was used for 10^7 cells. Protein concentrations in the lysates were measured by BCA method. Separation of proteins in the lysates was carried out on a 12% denaturing polyacrylamide gel. The separated proteins were transferred to PVDF membrane by Western blotting.
# Incubation with primary mouse monoclonal antibody against the protein c-myc (dilution 1:1000 in “SignalBoost” reagent) was carried out overnight at 4° C., and then with the primary mouse anti-β-actin (1:5000 dilution in 5% milk in TBS-T buffer) at room temperature for 2 hours. Subsequently, the secondary horse monoclonal antibody conjugated to horseradish peroxidase (diluted 1:2000 in 5% milk in TBS-T buffer) binding to mouse IgG antibody was applied. C-myc proteins and β-actin bound to the membrane were visualized using detection kit (SuperSignal® West Femto Maximum Sensitivity Substrate, Cat. No. 34095, Thermo Fisher Scientific, Inc., USA) in the chemiluminescence detection system ImageQuant LAS 4000 Mini (Cat. No. 28-9558-13, GE Healthcare Life Sciences, USA). The amount of protein was quantified by densitometry in Quantity One software. The amount of c-myc in the samples was normalized to β-actin, and subsequently related to a control sample.
Compound,inhibition at 50 µM [1] [%],activity at 50 µM [1] [%],c-myc protein expression relative to control (control = 100%) [2] [%]
"CCOC(=O)c1cc(/C=C/c2cc[n+]3c(c2)-c2c(c(C)c(C)c4c2-c2c5ccccc5cc[n+]2CC4)CC3)c[nH]1.O=S(=O)([O-])C(F)(F)F.O=S(=O)([O-])C(F)(F)F [MJA-C8-28, (E)-13-(2-(5-(ethoxycarbonyl)-1H-pyrrol-3-yl)vinyl)-6,7-dimethyl-4,5,8,9-tetrahydroisoquinolino[1,2-a]pyrido[1,2-k][2,9]phenanthroline-3,10-diium trifluoromethanesulfonate]",> 20,72,23
"CCCCCCc1ccc(/C=C/c2cc[n+]3c(c2)-c2c(c(C)c(C)c4c2-c2c5ccccc5cc[n+]2CC4)CC3)s1.O=S(=O)([O-])C(F)(F)F.O=S(=O)([O-])C(F)(F)F [MJA-C11-25, (E)-13-(2-(5-hexylthiophen-2-yl)vinyl)-6,7-dimethyl-4,5,8,9-tetrahydroisoquinolino[1,2-a]pyrido[1,2-k][2,9]phenanthroline-3,10-diium trifluoromethanesulfonate]",,,66
"Cc1c(C)c2c(c3c1CC[n+]1ccc4ccccc4c1-3)-c1cccc(/C=C/c3cccc4c3oc3ccccc34)[n+]1CC2.O=S(=O)([O-])C(F)(F)F.O=S(=O)([O-])C(F)(F)F [VDJA-C13-8, (E)-11-(2-(dibenzo[b,d]furan-4-yl)vinyl)-6,7-dimethyl-4,5,8,9-tetrahydroisoquinolino[1,2-a]pyrido[1,2-k][2,9]phenanthroline-3,10-diium trifluoromethanesulfonate]",> 20,76,77
"Cc1c(C)c2c(c3c1CC[n+]1ccc(/C=C/c4ccsc4)cc1-3)-c1cccc(/C=C/c3ccsc3)[n+]1CC2 (racemic) [MJB-C5-9, (rac)-8,9-dimethyl-2,13-bis((E)-2-(thiophen-3-yl)vinyl)-6,7,10,11-tetrahydrodipyrido[2,1-a:1′,2′-k][2,9]phenanthroline-5,12-diium trifluoromethanesulfonate]",> 20,75,30
"C(=C\c1cccc2c1oc1ccccc12)/c1cc[n+]2c(c1)-c1c(ccc3c1-c1cccc[n+]1CC3)CC2.O=S(=O)([O-])C(F)(F)F.O=S(=O)([O-])C(F)(F)F [LSA-C13-8, (E)-2-(2-(dibenzo[b,d]furan-4-yl)vinyl)-6,7,10,11-tetrahydrodipyrido[2,1-a:1′,2′-k][2,9]phenanthroline-5,12-diium trifluoromethanesulfonate]",> 40,58,15
"Cc1c(C)c2c(c3c1CC[n+]1ccc(/C=C/c4cccc5c4oc4ccccc45)cc1-3)-c1cc(/C=C/c3cccc4c3oc3ccccc34)cc[n+]1CC2.O=S(=O)([O-])C(F)(F)F.O=S(=O)([O-])C(F)(F)F [PDB-C13-8, 2,15-bis((E)-2-(dibenzo [b,d]furan-4-yl)vinyl)-8,9-dimethyl-6,7,10,11-tetrahydrodipyrido[2,1-a:1′,2′-k][2,9]phenanthroline-5,12-diium trifluoromethanesulfonate]",,,83
"C(=C\c1cc2ccccc2[nH]1)/c1cc(/C=C/c2cc3ccccc3[nH]2)[n+]2c(c1)-c1c(ccc3c1-c1cccc[n+]1CC3)CC2.O=S(=O)([O-])C(F)(F)F.O=S(=O)([O-])C(F)(F)F [HTA-C10-10, 2,4-bis((E)-2-(1H-indol-2-yl)vinyl)-6,7,10,11-tetrahydrodipyrido[2,1-a:1′,2′-k][2,9]phenanthroline-5,12-diium trifluoromethanesulfonate]",,,75
"Cc1nc[nH]c1/C=C/c1cc[n+]2c(c1)-c1c(c(C)c(C)c3c1-c1cccc(/C=C/c4[nH]cnc4C)[n+]1CC3)CC2.O=S(=O)([O-])C(F)(F)F.O=S(=O)([O-])C(F)(F)F [MJB-C5-11, 8,9-dimethyl-2,13-bis((E)-2-(4-methyl-1H-imidazol-5-yl)vinyl)-6,7,10,11-tetrahydrodipyrido[2,1-a:1′,2′-k][2,9]phenanthroline-5,12-diium trifluoromethanesulfonate]",,,23
"C(=C\c1ccc(-c2cccs2)s1)/c1cc[n+]2c(c1)-c1c(ccc3c1-c1cccc[n+]1CC3)CC2.O=S(=O)([O-])C(F)(F)F.O=S(=O)([O-])C(F)(F)F [LSA-C9-16, (E)-2-(2-([2,2′-bithiophen]-5-yl)vinyl)-6,7,10,11-tetrahydrodipyrido[2,1-a:1′,2′-k][2,9]phenanthroline-5,12-diium trifluoromethanesulfonate]",,,28
"C(=C\c1cc(/C=C/c2ccsc2)[n+]2c(c1)-c1c(ccc3c1-c1cc(/C=C/c4ccsc4)cc(/C=C/c4ccsc4)[n+]1CCC3)CCC2)/c1ccsc1 (racemic) [PRC-C5-9, (rac)-2,4,13,15-tetrakis((E)-2-(thiophen-3-yl)vinyl)-6,7,8,11,12,13-hexahydro-dipyrido[1,2-a;1′,2′-a′]benzo[2,1-c:3,4-c′]bisazepindiium trifluoromethanesulfonate]",,,34
